# Tested on: 556581-035-R-J1 tumor spheroid viability, % test/control
# Assay: Anticancer human tumor 556581-035-R-J1 patient-derived ovarian carcinoma cell line growth inhibition
# Conditions: spheroids with HUVEC and MSC; for IC50: curve of first compound; for viability, T/C: stronger effect = lower value
# Text: Multicellular complex tumor spheroid response to DNA repair inhibitors in combination with DNA-damaging drugs
# This study explores the anticancer activities of DNA-damaging drugs and inhibitors of DNA damage repair, both as single agents and in combinations. Complex tumor spheroids comprised of malignant cells, endothelial cells and mesenchymal stem cells served as an in vitro model for human solid tumors. This model system incorporates physiologically relevant features and patient-derived or established malignant cell lines with clinically relevant genetic alterations from many tumor types. Twenty-six patient-derived or established malignant cell lines were evaluated representing sarcoma, melanoma, small cell lung cancer (SCLC), non-small cell lung cancer (NSCLC), as well as bladder, ovarian and pancreatic cancers. The concentration ranges selected for each drug and investigational agent were based upon clinically achievable concentrations if the clinical Cmax of the agent was known.
# Compounds. The drugs and compounds olaparib (NSC753686), talazoparib (NSC767125), berzosertib (NSC777718), elimusertib (NSC800525), nedisertib (NSC802822), VX-984 (NSC792969), AZD-1390 (NSC803789), temozolomide (NSC362856), topotecan (NSC609699), trabectedin (NSC813783), staurosporine (NSC755774), and gemcitabine (NSC613327) were obtained from the National Cancer Institute (NCI) Developmental Therapeutics Program Chemical Repository. The FDA-approved anticancer drug set is available from the Developmental Therapeutics Program at https://dtp.cancer.gov/organization/dscb/obtaining/available_plates.htm. […] The stock solutions were prepared in dimethyl sulfoxide (DMSO, Sigma-Aldrich, St. Louis, MO, cat. D2650) at 400-fold the tested concentration and stored at -70 degrees C. Prior to their use, the stock solutions were diluted in fresh medium and the final DMSO concentration in the assay was 0.25% (v/v). All drugs and investigational agents were tested over a range starting from a high concentration at or near the clinical Cmax and decreasing in half-log increments. If the clinical Cmax for an agent had not been determined, the highest concentration tested was 10 microM.
# Cell Lines. The patient-derived cancer cell (PDC) lines: 156681-154-R-J1-PDC, 283228-195-R-J1-PDC, 287954-098-R-J1-PDC, 292921-168-R-J2-PDC, 349418-098-R-PDC, 425362-245-T-J1-PDC, 556581-035-R-J1-PDC, and BL0293-F563-PDC were received from the NCI Patient-Derived Models Repository (PDMR, https://pdmr.cancer.gov). The established cell lines HS-SY-2 (RRID:CVCL_8719), MPNST, and SYO-1 (RRID:CVCL_7146) were obtained from the Sloan Kettering Institute. The alveolar soft parts sarcoma cell line ASPS-1 (RRID:CVCL_S738) was established at the NCI and grown from internal seed stocks. The following established cell lines were purchased from the American Type Culture Collection (ATCC, Manassas, VA): G-401 (ATCC, cat. CRL-1441, RRID:CVCL_0270), SW982 (ATCC, cat. HTB-93, RRID:CVCL_1734), VA-ES-BJ (ATCC, cat. CRL-2138, RRID:CVCL_1785), NCI-H719 (ATCC, cat. CRL-5837, RRID:CVCL_1582), NCI-H196 (ATCC, cat. CRL-5823, RRID:CVCL_1509), NCI-H841 (ATCC, cat. CRL-5845, RRID:CVCL_1595), NCI-H1618 (ATCC, cat. CRL-5879, RRID:CVCL_1480), NCI-H1876 (ATCC, cat. CRL-5902, RRID:CVCL_1503), DMS 114 (ATCC, cat. CRL-2066; RRID:CVCL_1174), NCI-H211 (ATCC, cat. CRL-5824; RRID:CVCL_1529), and SW 1271 (ATCC, cat. CRL-2177, RRID:CVCL_1716). The small cell lung cancer cell line COR-L88 was purchased from Sigma-Aldrich (cat. 92031917-1VL, RRID:CVCL_1141). The non-small cell lung cancer cell lines NCI-H226 (RRID:CVCL_1544) and NCI-H322M (RRID:CVCL_1557) were established at the NCI and grown from internal seed stocks. Pooled donor human umbilical vein endothelial cells (HUVEC, Lonza, cat. CC-2519) and human mesenchymal stem cells (hMSC, Lonza, cat. PT-2501) were purchased from Lonza (Walkersville, MD).
# Cell Culture. All cells were maintained in an incubator at 37 degrees C and 5% CO2 with 95% humidity. […]
# 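Further: spheroids exposed to compounds for 7 days before viability read.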
compound,measurement,setting,value
Cc1cc(C)c(CNC(=O)c2cc(-c3ccc(CN4CCOCC4)cc3)cc3c2cnn3C2CCCC2)c(=O)[nH]1 + CC[C@@]1(O)C(=O)OCc2c1cc1n(c2=O)Cc2cc3c(CN(C)C)c(O)ccc3nc2-1,IC50,second compound 0.003 µM,> 10 µM
same,IC50,second compound 0.00949 µM,> 10 µM
same,IC50,second compound 0.03 µM,> 10 µM
same,IC50,second compound 0.0949 µM,4.51 µM
same,IC50,second compound 0.3 µM,< 0.0316 µM
same,"viability, T/C","second compound 0.003 µM, first compound 0.0316 µM",97%
same,"viability, T/C","second compound 0.003 µM, first compound 0.1 µM",85.4%
same,"viability, T/C","second compound 0.003 µM, first compound 0.316 µM",89%
same,"viability, T/C","second compound 0.003 µM, first compound 1 µM",84%
same,"viability, T/C","second compound 0.003 µM, first compound 3.16 µM",99.7%
same,"viability, T/C","second compound 0.003 µM, first compound 10 µM",87.4%
same,"viability, T/C","second compound 0.00949 µM, first compound 0.0316 µM",95.9%
same,"viability, T/C","second compound 0.00949 µM, first compound 0.1 µM",87.7%
same,"viability, T/C","second compound 0.00949 µM, first compound 0.316 µM",78.8%
same,"viability, T/C","second compound 0.00949 µM, first compound 1 µM",72.5%
same,"viability, T/C","second compound 0.00949 µM, first compound 3.16 µM",87.4%
same,"viability, T/C","second compound 0.00949 µM, first compound 10 µM",83.8%
same,"viability, T/C","second compound 0.03 µM, first compound 0.0316 µM",74.2%
same,"viability, T/C","second compound 0.03 µM, first compound 0.1 µM",72.9%
same,"viability, T/C","second compound 0.03 µM, first compound 0.316 µM",70.3%
same,"viability, T/C","second compound 0.03 µM, first compound 1 µM",67.1%
same,"viability, T/C","second compound 0.03 µM, first compound 3.16 µM",66.8%
same,"viability, T/C","second compound 0.03 µM, first compound 10 µM",70.4%
same,"viability, T/C","second compound 0.0949 µM, first compound 0.0316 µM",60.1%
same,"viability, T/C","second compound 0.0949 µM, first compound 0.1 µM",56.6%
same,"viability, T/C","second compound 0.0949 µM, first compound 0.316 µM",57.1%
same,"viability, T/C","second compound 0.0949 µM, first compound 1 µM",56.3%
same,"viability, T/C","second compound 0.0949 µM, first compound 3.16 µM",53.5%
same,"viability, T/C","second compound 0.0949 µM, first compound 10 µM",43.1%
same,"viability, T/C","second compound 0.3 µM, first compound 0.0316 µM",19.3%
same,"viability, T/C","second compound 0.3 µM, first compound 0.1 µM",22.9%
same,"viability, T/C","second compound 0.3 µM, first compound 0.316 µM",19.6%
same,"viability, T/C","second compound 0.3 µM, first compound 1 µM",19.2%
same,"viability, T/C","second compound 0.3 µM, first compound 3.16 µM",15.6%
same,"viability, T/C","second compound 0.3 µM, first compound 10 µM",11.3%
Cc1sc2c(c1C)C(c1ccc(Cl)cc1)=NC(CC(=O)Nc1ccc(O)cc1)c1nnc(C)n1-2 (stereo not given) + CC[C@@]1(O)C(=O)OCc2c1cc1n(c2=O)Cc2cc3c(CN(C)C)c(O)ccc3nc2-1,IC50,second compound 0.003 µM,> 3 µM
same,IC50,second compound 0.00949 µM,> 3 µM
same,IC50,second compound 0.03 µM,> 3 µM
same,IC50,second compound 0.0949 µM,0.281 µM
same,IC50,second compound 0.3 µM,< 0.00949 µM
same,"viability, T/C","second compound 0.003 µM, first compound 0.00949 µM",103%
same,"viability, T/C","second compound 0.003 µM, first compound 0.03 µM",85.4%
same,"viability, T/C","second compound 0.003 µM, first compound 0.0949 µM",83.8%
same,"viability, T/C","second compound 0.003 µM, first compound 0.3 µM",74.8%
same,"viability, T/C","second compound 0.003 µM, first compound 0.949 µM",77.5%
same,"viability, T/C","second compound 0.003 µM, first compound 3 µM",74.2%
same,"viability, T/C","second compound 0.00949 µM, first compound 0.00949 µM",99.4%
same,"viability, T/C","second compound 0.00949 µM, first compound 0.03 µM",84.3%
same,"viability, T/C","second compound 0.00949 µM, first compound 0.0949 µM",74%
same,"viability, T/C","second compound 0.00949 µM, first compound 0.3 µM",68.8%
same,"viability, T/C","second compound 0.00949 µM, first compound 0.949 µM",71.4%
same,"viability, T/C","second compound 0.00949 µM, first compound 3 µM",64.2%
same,"viability, T/C","second compound 0.03 µM, first compound 0.00949 µM",74.3%
same,"viability, T/C","second compound 0.03 µM, first compound 0.03 µM",76.5%
same,"viability, T/C","second compound 0.03 µM, first compound 0.0949 µM",68.8%
same,"viability, T/C","second compound 0.03 µM, first compound 0.3 µM",66.7%
same,"viability, T/C","second compound 0.03 µM, first compound 0.949 µM",65.6%
same,"viability, T/C","second compound 0.03 µM, first compound 3 µM",54.7%
same,"viability, T/C","second compound 0.0949 µM, first compound 0.00949 µM",59.3%
same,"viability, T/C","second compound 0.0949 µM, first compound 0.03 µM",58.4%
same,"viability, T/C","second compound 0.0949 µM, first compound 0.0949 µM",56.2%
same,"viability, T/C","second compound 0.0949 µM, first compound 0.3 µM",50.7%
same,"viability, T/C","second compound 0.0949 µM, first compound 0.949 µM",39.6%
same,"viability, T/C","second compound 0.0949 µM, first compound 3 µM",41.4%
same,"viability, T/C","second compound 0.3 µM, first compound 0.00949 µM",16.4%
same,"viability, T/C","second compound 0.3 µM, first compound 0.03 µM",16.9%
same,"viability, T/C","second compound 0.3 µM, first compound 0.0949 µM",12.9%
same,"viability, T/C","second compound 0.3 µM, first compound 0.3 µM",17.1%
same,"viability, T/C","second compound 0.3 µM, first compound 0.949 µM",18.6%
same,"viability, T/C","second compound 0.3 µM, first compound 3 µM",11.3%

# From PubChem BioAssay AID1845199 (Molecular Pharmacology Branch, DTP, NCI, 2023)
